# From patent US9938262B2, “Benzamides” (Merck Patent GmbH, priority 2011, dated 2018)
# pEC50: −log10 of the molar value.
# Target: T1, FSHR (Homo sapiens, UniProt P23945)
# T1 construct: expressed in transfected cells; host or cells: CHO (Cho-FSHR-LUC-1-1-43)
# Assay: EC50 of cyclic AMP production in CHO FSHR cells + EC20 FSH (Assay A)
# Type: cell-based
# Conditions: CHO FSHR cells + EC20 FSH; Table 2; read-out: Assay A EC50 of cyclic AMP production
# How it was run: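 cAMP HTRF ratio (665/620 nm) read after 1 h, 37 °C exposure of CHO-FSHR cells to compound in presence of EC20 FSH ([…]) and IBMX 200 μM. Responses given relative to FSH standard maximum; EC50 derived.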
# T1 sequence (P23945 18-695): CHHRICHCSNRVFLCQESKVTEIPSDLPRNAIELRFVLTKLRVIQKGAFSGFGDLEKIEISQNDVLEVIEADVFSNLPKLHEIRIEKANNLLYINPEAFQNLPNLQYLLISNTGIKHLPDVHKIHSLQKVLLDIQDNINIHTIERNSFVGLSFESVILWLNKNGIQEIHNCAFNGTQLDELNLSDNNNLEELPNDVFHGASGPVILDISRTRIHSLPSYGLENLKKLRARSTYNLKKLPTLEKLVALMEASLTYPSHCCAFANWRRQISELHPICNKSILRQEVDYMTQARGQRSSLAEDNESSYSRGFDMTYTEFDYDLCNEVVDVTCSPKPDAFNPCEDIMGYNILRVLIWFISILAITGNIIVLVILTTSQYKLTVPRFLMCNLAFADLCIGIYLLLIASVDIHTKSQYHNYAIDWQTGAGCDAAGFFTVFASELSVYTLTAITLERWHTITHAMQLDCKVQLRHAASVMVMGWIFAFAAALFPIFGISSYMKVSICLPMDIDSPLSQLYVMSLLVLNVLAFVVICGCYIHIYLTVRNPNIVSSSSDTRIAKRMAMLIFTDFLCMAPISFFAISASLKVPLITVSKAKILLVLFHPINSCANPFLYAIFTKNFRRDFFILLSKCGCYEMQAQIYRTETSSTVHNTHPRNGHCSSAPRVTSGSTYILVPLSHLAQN
# T1 sequence (P01215 25-116 partner): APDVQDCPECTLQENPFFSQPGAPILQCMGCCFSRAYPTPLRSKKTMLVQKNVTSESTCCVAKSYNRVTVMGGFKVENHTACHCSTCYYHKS
# T1 sequence (P01225 19-129 partner): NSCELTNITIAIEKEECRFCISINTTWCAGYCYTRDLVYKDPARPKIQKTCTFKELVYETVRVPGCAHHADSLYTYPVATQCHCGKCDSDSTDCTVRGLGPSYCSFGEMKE
row,Compound,pEC50
1,Cc1ccccc1N1CCN(c2ccc(C(=O)NCC(C)(C)CN3CCCC3=O)cc2NC(=O)c2coc(C3CC3)n2)CC1 [Compound 356],6.00 to 7.00
2,Cc1ccccc1N1CCN(c2ccc(C(=O)NCCCN3C(=O)OC[C@H]3CO)cc2NC(=O)c2coc(C3CC3)n2)CC1 [Compound 357],6.00 to 7.00
3,Cc1ccccc1N1CCN(c2ccc(C(=O)NCCCN3C(=O)OCC3(C)C)cc2NC(=O)c2coc(C3CC3)n2)CC1 [Compound 358],6.00 to 7.00
4,Cc1ccccc1N1CCN(c2ccc(C(=O)NCC3(C(N)=O)CC3)cc2NC(=O)c2coc(C3CC3)n2)CC1 [Compound 359],6.00 to 7.00
5,CC(=O)N(C)CCCNC(=O)c1ccc(N2CCN(c3ccccc3C)CC2)c(NC(=O)c2coc(C3CC3)n2)c1 [Compound 360],> 7.00
6,Cc1ccccc1N1CCN(c2ccc(C(=O)NCCCC(=O)CN(c3ccccc3)c3ccccc3)cc2NC(=O)c2coc(C3CC3)n2)CC1 [Compound 361],5.00 to 6.00
7,Cc1ccccc1N1CCN(c2ccc(C(=O)NCCCN3CCC(F)(F)C3)cc2NC(=O)c2coc(C3CC3)n2)CC1 [Compound 362],6.00 to 7.00
8,Cc1ccccc1N1CCN(c2ccc(C(=O)NCCCC(=O)NC3CCC3)cc2NC(=O)c2coc(C3CC3)n2)CC1 [Compound 363],6.00 to 7.00
9,Cc1ccccc1N1CCN(c2ccc(C(=O)NC(C)CCN3CCCC3=O)cc2NC(=O)c2coc(C3CC3)n2)CC1 (stereo not drawn) [Compound 364],6.00 to 7.00
10,Cc1ccccc1N1CCN(c2ccc(C(=O)NCCCN3CC(C)OC3=O)cc2NC(=O)c2coc(C3CC3)n2)CC1 (stereo not drawn) [Compound 366],6.00 to 7.00
11,CCNC(=O)N(C)CCCNC(=O)c1ccc(N2CCN(c3ccccc3C)CC2)c(NC(=O)c2coc(C3CC3)n2)c1 [Compound 367],6.00 to 7.00
12,CC(=O)NCCCNC(=O)c1ccc(N2CCN(c3ccccc3C)CC2)c(NC(=O)c2coc(C3CC3)n2)c1 [Compound 368],6.00 to 7.00
13,Cc1ccc(C(=O)Nc2cc(C(=O)NCCCN3C(=O)OCC3(C)C)ccc2N2CCN(c3ccccc3C)CC2)o1 [Compound 369],5.00 to 6.00
14,Cc1ccc(C(=O)Nc2cc(C(=O)NCCCN3CC(C)OC3=O)ccc2N2CCN(c3ccccc3C)CC2)o1 (stereo not drawn) [Compound 370],5.00 to 6.00
15,Cc1ccccc1N1CCN(c2ccc(C(=O)NCCNC3CS(=O)(=O)CC3O)cc2NC(=O)c2ccco2)CC1 (stereo not drawn) [Compound 371],6.00 to 7.00
16,Cc1ccccc1N1CCN(c2ccc(C(=O)NCCCc3ccccc3O)cc2NC(=O)c2ccco2)CC1 [Compound 372],6.00 to 7.00
17,Cc1ccccc1N1CCN(c2ccc(C(=O)NCCCc3ccccc3Cl)cc2NC(=O)c2ccco2)CC1 [Compound 373],5.00 to 6.00
18,Cc1ccccc1N1CCN(c2ccc(C(=O)NCCCn3nccc3C3CC3)cc2NC(=O)c2ccco2)CC1 [Compound 374],6.00 to 7.00
19,Cc1ccccc1N1CCN(c2ccc(C(=O)NCCCC3CCCC3)cc2NC(=O)c2ccco2)CC1 [Compound 375],6.00 to 7.00
20,Cc1ccccc1N1CCN(c2ccc(C(=O)NCC(=O)NC3CCS(=O)(=O)C3)cc2NC(=O)c2ccco2)CC1 (stereo not drawn) [Compound 376],6.00 to 7.00
21,Cc1ccccc1N1CCN(c2ccc(C(=O)NCCCC3CCS(=O)(=O)C3)cc2NC(=O)c2ccco2)CC1 (stereo not drawn) [Compound 377],6.00 to 7.00
22,Cc1ccccc1N1CCN(c2ccc(C(=O)NCCCN3C(=O)C(=O)N(C)C3=O)cc2NC(=O)c2ccco2)CC1 [Compound 379],6.00 to 7.00

row,Compound,pEC50
1,Cc1ccccc1N1CCN(c2ccc(C(=O)NCC3C[C@@H]4CC[C@H]3C4)cc2NC(=O)c2ccco2)CC1 (stereo partly drawn) [Compound 380],6.00 to 7.00
2,Cc1ccccc1N1CCN(c2ccc(C(=O)NCc3cccc(-c4nccs4)c3)cc2NC(=O)c2coc(C3CC3)n2)CC1 [Compound 382],6.00 to 7.00
3,Cc1ccccc1N1CCN(c2ccc(C(=O)NCCCN3CCCC3=O)cc2NC(=O)c2cnc(C3CC3)s2)CC1 [Compound 383],6.00 to 7.00
4,Cc1ccccc1N1CCN(c2ccc(C(=O)NCCCN3C(=O)CCC3=O)cc2NC(=O)c2ccc(Br)o2)CC1 [Compound 384],6.00 to 7.00
5,Cc1ccccc1N1CCN(c2ccc(C(=O)NCCCN3CCOC3=O)cc2NC(=O)c2ccc(Br)o2)CC1 [Compound 385],6.00 to 7.00
6,Cc1ccccc1N1CCN(c2ccc(C(=O)NCCCN3CCCC3=O)cc2NC(=O)c2cnc(C3CC3)o2)CC1 [Compound 386],6.00 to 7.00
7,Cc1ccccc1N1CCN(c2ccc(C(=O)NCCNC3CCS(=O)(=O)C3)cc2NC(=O)c2ccco2)CC1 (stereo not drawn) [Compound 387],6.00 to 7.00
8,Cc1ccccc1N1CCN(c2ccc(C(=O)NCCCc3ccc(O)cc3)cc2NC(=O)c2ccco2)CC1 [Compound 388],> 7.00
9,Cc1ccccc1N1CCN(c2ccc(C(=O)NCCNC3CCCC3)cc2NC(=O)c2ccco2)CC1 [Compound 389],< 5.00
10,Cc1ccccc1N1CCN(c2ccc(C(=O)NCCCc3nc(C)c(C)s3)cc2NC(=O)c2coc(C3CC3)n2)CC1 [Compound 390],6.00 to 7.00
11,Cc1ccccc1N1CCN(c2ccc(C(=O)NCCCc3scnc3C)cc2NC(=O)c2coc(C3CC3)n2)CC1 [Compound 391],6.00 to 7.00
12,Cc1ccccc1N1CCN(c2ccc(C(=O)NCCCc3nccs3)cc2NC(=O)c2coc(C3CC3)n2)CC1 [Compound 393],6.00 to 7.00
13,Cc1csc(CCCNC(=O)c2ccc(N3CCN(c4ccccc4C)CC3)c(NC(=O)c3coc(C4CC4)n3)c2)n1 [Compound 395],6.00 to 7.00
14,Cc1ccccc1N1CCN(c2ccc(C(=O)NCCCn3cncn3)cc2NC(=O)c2coc(C3CC3)n2)CC1 [Compound 396],6.00 to 7.00
15,Cc1ccccc1N1CCN(c2ccc(C(=O)NCCc3ccccc3C#N)cc2NC(=O)c2coc(C3CC3)n2)CC1 [Compound 397],6.00 to 7.00
16,Cc1ccc(C(=O)Nc2cc(C(=O)NC(C)CCN3CCCC3=O)ccc2N2CCN(c3ccccc3C)CC2)o1 (stereo not drawn) [Compound 398],6.00 to 7.00
17,O=C(NCCCN1CCCC1=O)c1ccc(N2CC=C(c3ccccc3)CC2)c(NC(=O)c2coc(C3CC3)n2)c1 [Compound 399],6.00 to 7.00
18,CC(=O)NC1(c2ccccc2)CCN(c2ccc(C(=O)NCCCN3CCCC3=O)cc2NC(=O)c2coc(C3CC3)n2)CC1 [Compound 400],< 5.00
19,NC1(c2ccccc2)CCN(c2ccc(C(=O)NCCCN3CCCC3=O)cc2NC(=O)c2coc(C3CC3)n2)CC1 [Compound 401],< 5.00
20,O=C(NCCCN1CCCC1=O)c1ccc(N2CCN(c3ccccc3F)CC2)c(NC(=O)c2coc(C3CC3)n2)c1 [Compound 402],6.00 to 7.00
21,O=C(NCCCN1CCCC1=O)c1ccc(N2CCN(c3ccccc3OC(F)(F)F)CC2)c(NC(=O)c2coc(C3CC3)n2)c1 [Compound 403],5.00 to 6.00
22,Cc1ccc(C(=O)Nc2cc(C(=O)NCCCN3CCCC3=O)ccc2N2CCN(c3ccccc3OC(F)(F)F)CC2)o1 [Compound 404],5.00 to 6.00

row,Compound,pEC50
1,Cc1ccccc1N(C)C1CCN(c2ccc(C(=O)NCCCN3CCCC3=O)cc2NC(=O)c2coc(C3CC3)n2)CC1 [Compound 405],6.00 to 7.00
2,Cc1ccccc1N1CCN(c2ccc(C(=O)NCCCN3CCOCC3)cc2NC(=O)c2coc(C3CC3)n2)CC1 [Compound 406],6.00 to 7.00
3,CN(c1ccccc1)C1CCN(c2ccc(C(=O)NCCCN3CCCC3=O)cc2NC(=O)c2coc(C3CC3)n2)CC1 [Compound 407],< 5.00
4,Cc1ccccc1N1CCN(c2ccc(C(=O)NCCc3cccc(CN(C)C)c3)cc2NC(=O)c2coc(C3CC3)n2)CC1 [Compound 408],6.00 to 7.00
5,Cc1ccccc1N1CCN(c2ccc(C(=O)Nc3ccc(C(C)(C)C#N)cc3)cc2NC(=O)c2coc(C3CC3)n2)CC1 [Compound 409],< 5.00
6,Cc1ccccc1N1CCN(c2ccc(C(=O)NCCc3ccccc3C(N)=O)cc2NC(=O)c2coc(C3CC3)n2)CC1 [Compound 411],6.00 to 7.00
7,Cc1ccccc1N1CCN(c2ccc(C(=O)Nc3ccnn3CC3CCOC3)cc2NC(=O)c2coc(C3CC3)n2)CC1 (stereo not drawn) [Compound 412],5.00 to 6.00
8,Cc1cncnc1N1CCN(c2ccc(C(=O)NCCCN3CCCC3=O)cc2NC(=O)c2coc(C3CC3)n2)CC1 [Compound 413],5.00 to 6.00
9,Cc1ccccc1C1=CCN(c2ccc(C(=O)NCCCN3CCCC3=O)cc2NC(=O)c2coc(C3CC3)n2)CC1 [Compound 414],6.00 to 7.00
10,Cc1ccccc1N1CCN(c2ccc(C(=O)NCCCN3CCCC3=O)cc2NC(=O)c2nccn2C)CC1 [Compound 415],< 5.00
11,Cc1ccccc1N1CCN(c2ccc(C(=O)NCCCNC(=O)OC(C)(C)C)cc2NC(=O)c2coc(C3CC3)n2)CC1 [Compound 416],6.00 to 7.00
12,Cc1ccccc1N1CCN(c2ccc(C(=O)NCCCN)cc2NC(=O)c2coc(C3CC3)n2)CC1 [Compound 417],5.00 to 6.00
13,Cc1ccccc1N1CCN(c2ccc(C(=O)NCCCC(=O)N(C)C)cc2NC(=O)c2coc(C3CC3)n2)CC1 [Compound 418],6.00 to 7.00
14,Cc1ccc(C(=O)Nc2cc(C(=O)NCCCN3CCCC3=O)ccc2N2CCN(c3ncncc3C)CC2)o1 [Compound 419],< 5.00
15,Cc1cncnc1N1CCN(c2ccc(C(=O)NCCCN3CCCC3=O)cc2NC(=O)c2ccco2)CC1 [Compound 420],< 5.00
16,Cc1ccccc1N1CCN(c2ccc(C(=O)NCCCN3CCCC3=O)cc2NC(=O)c2cncn2C)CC1 [Compound 421],< 5.00
17,Cc1ccccc1N1CCN(c2ccc(C(=O)NCCCN3CCCC3=O)cc2NC(=O)c2coc(CN(C)C)n2)CC1 [Compound 422],< 5.00
18,Cc1ccc(C(=O)Nc2cc(C(=O)NCCCN3CCCC3=O)ccc2N2CCC(N(C)c3ccccc3)CC2)o1 [Compound 423],< 5.00
19,CC(=O)NCCOCCOCCNC(=O)c1ccc(N2CCN(c3ccccc3C)CC2)c(NC(=O)c2coc(C3CC3)n2)c1 [Compound 424],6.00 to 7.00
20,Cc1ccccc1N1CCN(c2ccc(C(=O)NCCCNC(=O)NC(C)C)cc2NC(=O)c2coc(C3CC3)n2)CC1 [Compound 425],6.00 to 7.00
21,C=CCNC(=O)NCCCNC(=O)c1ccc(N2CCN(c3ccccc3C)CC2)c(NC(=O)c2coc(C3CC3)n2)c1 [Compound 426],6.00 to 7.00
22,CCCCNC(=O)NCCCNC(=O)c1ccc(N2CCN(c3ccccc3C)CC2)c(NC(=O)c2coc(C3CC3)n2)c1 [Compound 427],6.00 to 7.00
